Results: patent US10738028B2, “Spiro three-membered ring, spiro five-membered ring peptide deformylase inhibitor and use thereof in antibacteria and anti-tumor” (priority 2016, dated 2020)
Converted amounts (≈) assume the structure as drawn.

Columns and labels:
Type in all cases: cell-based
[1] = test system: Enterococcus faecalis (EFA); assay: MIC, two-fold agar dilution (CLSI), clinical isolates
In short: (§1)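 Test samples were assayed by the CLSI-recommended two-fold agar dilution method, and the minimum inhibitory concentration against each tested strain was determined.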

[2] = test system: Enterococcus faecium (EFM); assay: as above
In short: as §1

[3] = test system: Escherichia coli (including ESBLs, non-ESBLs); assay: as above
In short: as §1

[4] = test system: Moraxella catarrhalis (BCA); assay: as above; conditions: for Anti-bacterial activity (MIC), strain BCA 14-10: clinical isolate BCA 14-10
In short: as §1

[5] = test system: Streptococcus pneoumoniae (SPN); assay: as above
In short: as §1

[6] = test system: methicillin-resistant Staphylococcus aureus (MRSA); assay: as above
In short: as §1

[7] = test system: methicillin-resistant Staphylococcus epidermidis (MRSE); assay: as above
In short: as §1

[8] = test system: methicillin-sensitive Staphylococcus aureus (MSSA); assay: as above
In short: as §1

[9] = test system: methicillin-sensitive Staphylococcus epidermidis (MSSE); assay: as above
In short: as §1

[10] = test system: HCT-116 colorectal cancer cell line; assay: CCK-8 proliferation inhibition; conditions: Homo sapiens, HCT-116, 72 h, concentration of 30 μM; 72 hours; CCK-8; read-out: HCT116 inhibition rate/%
In short: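 Cells seeded at 2000 cells/well, cultured overnight at 37 °C, 5% CO2, then exposed to compound (DMSO; control 1‰ DMSO) for 72 h in McCoy's 5A with 10% newborn bovine serum. Viability read with 1:10 diluted CCK-8.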

O=CN(O)C[C@@H](CC1CCCC1)C(=O)N1CC2(CC2)C[C@H]1C(=O)Nc1ncccc1F [Example 30, (S)-5-((R)-3-cyclopentyl-2-((N-hydroxyformamido)methyl)propionyl)-N-(3-fluoropyridin-2-yl)-5-spiro[2.4]heptane-6-carboxamide]
MIC (anti-bacterial activity) ([1]; strain EFA 15-1): 4 µg/mL (≈ 9.25 µM) | MIC (anti-bacterial activity) ([1]; strain EFA 15-2): 4 µg/mL (≈ 9.25 µM) | MIC (anti-bacterial activity) ([1]; strain EFA 15-3): 4 µg/mL (≈ 9.25 µM) | MIC (anti-bacterial activity) ([1]; strain EFA 15-4): 4 µg/mL (≈ 9.25 µM) | MIC (anti-bacterial activity) ([1]; strain EFA 15-5): 4 µg/mL (≈ 9.25 µM) | MIC (anti-bacterial activity) ([1]; strain EFA 15-6): 2 µg/mL (≈ 4.62 µM) | MIC (anti-bacterial activity) ([1]; strain EFA 15-9): 8 µg/mL (≈ 18.5 µM) | MIC (anti-bacterial activity) ([2]; strain EFM 15-1): 2 µg/mL (≈ 4.62 µM) | MIC (anti-bacterial activity) ([2]; strain EFM 15-2): 1 µg/mL (≈ 2.31 µM) | MIC (anti-bacterial activity) ([2]; strain EFM 15-3): 0.25 µg/mL (≈ 0.578 µM) | MIC (anti-bacterial activity) ([2]; strain EFM 15-4): 1 µg/mL (≈ 2.31 µM) | MIC (anti-bacterial activity) ([2]; strain EFM 15-5): 4 µg/mL (≈ 9.25 µM) | MIC (anti-bacterial activity) ([2]; strain EFM 15-6): 1 µg/mL (≈ 2.31 µM) | MIC (anti-bacterial activity) ([3]; strain ECO+ 15-1): 32 µg/mL (≈ 74 µM) | MIC (anti-bacterial activity) ([3]; strain ECO+ 15-2): > 32 µg/mL | MIC (anti-bacterial activity) ([3]; strain ECO+ 15-3): > 32 µg/mL | MIC (anti-bacterial activity) ([3]; strain ECO+ 15-4): > 32 µg/mL | MIC (anti-bacterial activity) ([3]; strain ECO− 15-1): > 32 µg/mL | MIC (anti-bacterial activity) ([3]; strain ECO− 15-2): > 32 µg/mL | MIC (anti-bacterial activity) ([3]; strain ECO− 15-3): > 32 µg/mL | MIC (anti-bacterial activity) ([3]; strain ECO− 15-4): > 32 µg/mL | Anti-bacterial activity (MIC), strain BCA 14-10 [4]: 0.5 µg/mL | MIC (anti-bacterial activity) ([4]; strain BCA 14-1): 2 µg/mL (≈ 4.62 µM) | MIC (anti-bacterial activity) ([4]; strain BCA 14-4): 2 µg/mL (≈ 4.62 µM) | MIC (anti-bacterial activity) ([4]; strain BCA 14-5): 1 µg/mL (≈ 2.31 µM) | MIC (anti-bacterial activity) ([4]; strain BCA 14-6): 4 µg/mL (≈ 9.25 µM) | MIC (anti-bacterial activity) ([4]; strain BCA 14-7): 1 µg/mL (≈ 2.31 µM) | MIC (anti-bacterial activity) ([4]; strain BCA 14-8): 1 µg/mL (≈ 2.31 µM) | MIC (anti-bacterial activity) ([5]; strain SPN 16-2): 4 µg/mL (≈ 9.25 µM) | MIC (anti-bacterial activity) ([5]; strain SPN 16-4): 1 µg/mL (≈ 2.31 µM) | MIC (anti-bacterial activity) ([6]; strain MRSA 15-1): 0.5 µg/mL (≈ 1.16 µM) | MIC (anti-bacterial activity) ([6]; strain MRSA 15-2): 0.5 µg/mL (≈ 1.16 µM) | MIC (anti-bacterial activity) ([6]; strain MRSA 15-3): 0.5 µg/mL (≈ 1.16 µM) | MIC (anti-bacterial activity) ([6]; strain MRSA 15-4): 0.5 µg/mL (≈ 1.16 µM) | MIC (anti-bacterial activity) ([7]; strain MRSE 15-1): 0.5 µg/mL (≈ 1.16 µM) | MIC (anti-bacterial activity) ([7]; strain MRSE 15-2): 2 µg/mL (≈ 4.62 µM) | MIC (anti-bacterial activity) ([7]; strain MRSE 15-3): 2 µg/mL (≈ 4.62 µM) | MIC (anti-bacterial activity) ([7]; strain MRSE 15-7): 2 µg/mL (≈ 4.62 µM) | MIC (anti-bacterial activity) ([8]; strain MSSA 15-3): 0.5 µg/mL (≈ 1.16 µM) | MIC (anti-bacterial activity) ([8]; strain MSSA 15-4): 0.5 µg/mL (≈ 1.16 µM) | MIC (anti-bacterial activity) ([8]; strain MSSA 15-5): 0.5 µg/mL (≈ 1.16 µM) | MIC (anti-bacterial activity) ([8]; strain MSSA 15-6): 0.5 µg/mL (≈ 1.16 µM) | MIC (anti-bacterial activity) ([9]; strain MSSE 15-3): 2 µg/mL (≈ 4.62 µM) | MIC (anti-bacterial activity) ([9]; strain MSSE 15-4): 2 µg/mL (≈ 4.62 µM) | MIC (anti-bacterial activity) ([9]; strain MSSE 15-5): 2 µg/mL (≈ 4.62 µM) | MIC (anti-bacterial activity) ([9]; strain MSSE 15-6): 0.5 µg/mL (≈ 1.16 µM) | inhibition at 30 µM [10]: 17%

O=CN(O)C[C@@H](CC1CCCC1)C(=O)N1CC2(CC2)C[C@H]1C(=O)Nc1cc[nH]n1 [Example 31, (S)-5-((R)-3-cyclopentyl-2-((N-hydroxyformamido)methyl)propionyl)-N-(1H-pyrazol-3-yl)-5-azaspiro[2.4]heptane-6-carboxamide]
MIC (anti-bacterial activity) ([1]; strain EFA 15-1): 32 µg/mL (≈ 79.3 µM) | MIC (anti-bacterial activity) ([1]; strain EFA 15-2): 32 µg/mL (≈ 79.3 µM) | MIC (anti-bacterial activity) ([1]; strain EFA 15-3): 32 µg/mL (≈ 79.3 µM) | MIC (anti-bacterial activity) ([1]; strain EFA 15-4): 32 µg/mL (≈ 79.3 µM) | MIC (anti-bacterial activity) ([1]; strain EFA 15-5): 32 µg/mL (≈ 79.3 µM) | MIC (anti-bacterial activity) ([1]; strain EFA 15-6): 32 µg/mL (≈ 79.3 µM) | MIC (anti-bacterial activity) ([1]; strain EFA 15-9): 32 µg/mL (≈ 79.3 µM) | MIC (anti-bacterial activity) ([2]; strain EFM 15-1): 4 µg/mL (≈ 9.91 µM) | MIC (anti-bacterial activity) ([2]; strain EFM 15-2): 4 µg/mL (≈ 9.91 µM) | MIC (anti-bacterial activity) ([2]; strain EFM 15-3): 2 µg/mL (≈ 4.96 µM) | MIC (anti-bacterial activity) ([2]; strain EFM 15-4): 4 µg/mL (≈ 9.91 µM) | MIC (anti-bacterial activity) ([2]; strain EFM 15-5): 2 µg/mL (≈ 4.96 µM) | MIC (anti-bacterial activity) ([2]; strain EFM 15-6): 4 µg/mL (≈ 9.91 µM) | MIC (anti-bacterial activity) ([3]; strain ECO+ 15-1): 32 µg/mL (≈ 79.3 µM) | MIC (anti-bacterial activity) ([3]; strain ECO+ 15-2): > 32 µg/mL | MIC (anti-bacterial activity) ([3]; strain ECO+ 15-3): > 32 µg/mL | MIC (anti-bacterial activity) ([3]; strain ECO+ 15-4): > 32 µg/mL | MIC (anti-bacterial activity) ([3]; strain ECO− 15-1): > 32 µg/mL | MIC (anti-bacterial activity) ([3]; strain ECO− 15-2): > 32 µg/mL | MIC (anti-bacterial activity) ([3]; strain ECO− 15-3): > 32 µg/mL | MIC (anti-bacterial activity) ([3]; strain ECO− 15-4): > 32 µg/mL | Anti-bacterial activity (MIC), strain BCA 14-10 [4]: 2 µg/mL | MIC (anti-bacterial activity) ([4]; strain BCA 14-1): 4 µg/mL (≈ 9.91 µM) | MIC (anti-bacterial activity) ([4]; strain BCA 14-4): 16 µg/mL (≈ 39.7 µM) | MIC (anti-bacterial activity) ([4]; strain BCA 14-5): 2 µg/mL (≈ 4.96 µM) | MIC (anti-bacterial activity) ([4]; strain BCA 14-6): 8 µg/mL (≈ 19.8 µM) | MIC (anti-bacterial activity) ([4]; strain BCA 14-7): 2 µg/mL (≈ 4.96 µM) | MIC (anti-bacterial activity) ([4]; strain BCA 14-8): 4 µg/mL (≈ 9.91 µM) | MIC (anti-bacterial activity) ([5]; strain SPN 16-2): 1 µg/mL (≈ 2.48 µM) | MIC (anti-bacterial activity) ([5]; strain SPN 16-4): 16 µg/mL (≈ 39.7 µM) | MIC (anti-bacterial activity) ([6]; strain MRSA 15-1): 2 µg/mL (≈ 4.96 µM) | MIC (anti-bacterial activity) ([6]; strain MRSA 15-2): 2 µg/mL (≈ 4.96 µM) | MIC (anti-bacterial activity) ([6]; strain MRSA 15-3): 2 µg/mL (≈ 4.96 µM) | MIC (anti-bacterial activity) ([6]; strain MRSA 15-4): 2 µg/mL (≈ 4.96 µM) | MIC (anti-bacterial activity) ([7]; strain MRSE 15-1): 0.5 µg/mL (≈ 1.24 µM) | MIC (anti-bacterial activity) ([7]; strain MRSE 15-2): 2 µg/mL (≈ 4.96 µM) | MIC (anti-bacterial activity) ([7]; strain MRSE 15-3): 2 µg/mL (≈ 4.96 µM) | MIC (anti-bacterial activity) ([7]; strain MRSE 15-7): 2 µg/mL (≈ 4.96 µM) | MIC (anti-bacterial activity) ([8]; strain MSSA 15-3): 2 µg/mL (≈ 4.96 µM) | MIC (anti-bacterial activity) ([8]; strain MSSA 15-4): 2 µg/mL (≈ 4.96 µM) | MIC (anti-bacterial activity) ([8]; strain MSSA 15-5): 2 µg/mL (≈ 4.96 µM) | MIC (anti-bacterial activity) ([8]; strain MSSA 15-6): 2 µg/mL (≈ 4.96 µM) | MIC (anti-bacterial activity) ([9]; strain MSSE 15-3): 2 µg/mL (≈ 4.96 µM) | MIC (anti-bacterial activity) ([9]; strain MSSE 15-4): 2 µg/mL (≈ 4.96 µM) | MIC (anti-bacterial activity) ([9]; strain MSSE 15-5): 2 µg/mL (≈ 4.96 µM) | MIC (anti-bacterial activity) ([9]; strain MSSE 15-6): 2 µg/mL (≈ 4.96 µM) | inhibition at 30 µM [10]: 19%
